In PubChem BioAssay (NCI) one finds GI50 and TGI data, which are given here for 8 compounds.

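Cultured in 96-well plates, cells were exposed to test compound for 48 hours across five concentrations. The concentration for 50% growth inhibition is given as GI50. TGI is the concentration that stops growth completely.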

Among the test systems are CAKI-1 renal; HCC-2998 colon; HCT-15 colon; HOP-62 NSCLC; OVCAR-3 ovarian; PC-3 prostate; SF-539 CNS; SK-MEL-28 melanoma; SNB-19 CNS; SNB-75 CNS.
Common to all, as to assay: growth of human tumour cells (NCI), 48 h

In the case of `Cc1ccc2oc(=O)cc(/C(=C3/C=CC=N3)c3ccc[nH]3)c2c1`, the GI50 in the assay on CAKI-1 renal is 0.53 µM; with HCC-2998 colon it was 1.15 µM; in the assay on HCT-15 colon it was 0.298 µM; with HOP-62 NSCLC, 0.533 µM; with OVCAR-3 ovarian, 0.271 µM; in the assay with PC-3 prostate, 0.274 µM. The GI50 in the assay with SF-539 CNS was 0.226 µM; with SK-MEL-28 melanoma, 0.611 µM; in the assay on SNB-19 CNS, 0.355 µM; in the assay on SNB-75 CNS, 0.335 µM. Moreover, the TGI with CAKI-1 renal was 10.6 µM; with HCC-2998 colon, 3.12 µM; with HCT-15 colon it was 10.1 µM; with HOP-62 NSCLC, 5.53 µM; with OVCAR-3 ovarian, 0.707 µM; in the assay with PC-3 prostate, 1.54 µM. Besides, the TGI in the assay with SF-539 CNS was found to be 0.67 µM; with SK-MEL-28 melanoma, 3.46 µM; with SNB-19 CNS it was 4.94 µM; in the assay with SNB-75 CNS, 4.46 µM.

As to `CC(=O)O[C@H]([C@H](OC(C)=O)[C@H](C)OC(C)=O)[C@@H](/C=C/[C@@H]1CC=CC(=O)O1)OC(C)=O`, the GI50 in the assay with CAKI-1 renal was 29.8 µM; with HCC-2998 colon it was 29 µM; in the assay on HCT-15 colon, 44.2 µM; in the assay with HOP-62 NSCLC, 57.6 µM; in the assay with OVCAR-3 ovarian, 17.1 µM; with PC-3 prostate, 13.9 µM. Moreover, the GI50 with SF-539 CNS is 34.5 µM; in the assay on SK-MEL-28 melanoma, 40.4 µM; with SNB-19 CNS, 59.5 µM; in the assay on SNB-75 CNS, 30.2 µM. Also, the TGI was 83.6 µM with CAKI-1 renal; 77.2 µM in the assay on HCC-2998 colon; > 100 µM in the assay on HCT-15 colon; > 100 µM with HOP-62 NSCLC; 41.9 µM in the assay on OVCAR-3 ovarian; > 100 µM in the assay on PC-3 prostate. For the same compound, the TGI is 92.7 µM with SF-539 CNS, > 100 µM with SK-MEL-28 melanoma, > 100 µM in the assay with SNB-19 CNS and 69.6 µM in the assay with SNB-75 CNS.

As to `CC1(C)S[C@@H]2[C@H](N3C(=O)c4ccccc4C3=O)CN2[C@H]1NC(=O)N[C@@H]1N2C[C@@H](N3C(=O)c4ccccc4C3=O)[C@H]2SC1(C)C`, the TGI with CAKI-1 renal, in the assay with HCC-2998 colon, with HCT-15 colon, in the assay on HOP-62 NSCLC, with OVCAR-3 ovarian and with PC-3 prostate was > 100 µM each time. Besides, the TGI with SF-539 CNS, with SK-MEL-28 melanoma, in the assay with SNB-19 CNS and with SNB-75 CNS was > 100 µM throughout.

Consider `NC(=NCc1ccccc1)C(N=Nc1ccccc1)C(=O)NCc1ccccc1` (stereo not given), for which the GI50 with CAKI-1 renal is 3.44 µM; in the assay on HCC-2998 colon, 11.5 µM; with HCT-15 colon, 8.19 µM; with HOP-62 NSCLC, 12.6 µM; in the assay on OVCAR-3 ovarian, 1.93 µM; in the assay with PC-3 prostate, 1.84 µM. Moreover, the GI50 in the assay on SF-539 CNS was 16.6 µM; in the assay with SK-MEL-28 melanoma, 20.4 µM; with SNB-19 CNS it was 13.2 µM; with SNB-75 CNS, 13.2 µM. In addition, the TGI was 15.2 µM with CAKI-1 renal; 29.9 µM with HCC-2998 colon; 67.3 µM in the assay on HCT-15 colon; 29.6 µM with HOP-62 NSCLC; 3.75 µM in the assay with OVCAR-3 ovarian; 4.02 µM in the assay with PC-3 prostate. Also, the TGI came to 37.1 µM with SF-539 CNS, 45.7 µM in the assay with SK-MEL-28 melanoma, 31.5 µM in the assay on SNB-19 CNS and 27.7 µM with SNB-75 CNS.

Regarding `Cc1c2ccn(O)cc2c(C)c2c1nc1ccccc12`, the TGI is > 51.7 µM in the assay with CAKI-1 renal; 98.5 µM in the assay on HCC-2998 colon; > 100 µM in the assay on HCT-15 colon; 27.5 µM with HOP-62 NSCLC; > 81.7 µM in the assay on OVCAR-3 ovarian; 30.2 µM in the assay with PC-3 prostate. In addition, the TGI in the assay with SF-539 CNS is 11 µM; in the assay on SK-MEL-28 melanoma, > 100 µM; in the assay on SNB-19 CNS it was 30.8 µM; in the assay on SNB-75 CNS it was 21.3 µM.

In the case of `COC(=O)C1=C(O)[C@H](C(=O)OC)C2(O)C(C(=O)OC)[C@H](c3ccc(OC(=O)C(C)c4ccccc4)cc3)C[C@@H]1[C@@H]2C(=O)OC` (stereo not given in full), the GI50 is 15.2 µM with CAKI-1 renal; 10.7 µM in the assay on HCC-2998 colon; 18.4 µM in the assay with HCT-15 colon; 23.8 µM with HOP-62 NSCLC; 9.69 µM with OVCAR-3 ovarian; 36.2 µM with PC-3 prostate. Further, the GI50 is 11.8 µM in the assay on SF-539 CNS, 26.7 µM with SK-MEL-28 melanoma, 23.7 µM with SNB-19 CNS and 16.6 µM with SNB-75 CNS. In addition, the TGI with CAKI-1 renal was > 50 µM; in the assay on HCC-2998 colon it was 20.6 µM; in the assay with HCT-15 colon it was > 50 µM; in the assay on HOP-62 NSCLC, > 50 µM; in the assay with OVCAR-3 ovarian, 21.4 µM; in the assay on PC-3 prostate it was > 50 µM. For the same compound, the TGI is 34.1 µM in the assay on SF-539 CNS, > 50 µM in the assay with SK-MEL-28 melanoma, > 50 µM in the assay with SNB-19 CNS and > 50 µM with SNB-75 CNS.

Regarding `N#Cc1c(NCc2ccccc2)nc(NCc2ccccc2)c(C#N)c1-c1ccc(O)cc1`, the GI50 is 10.7 µM in the assay with CAKI-1 renal; 39.5 µM in the assay with HCC-2998 colon; 29.6 µM in the assay on HCT-15 colon; 17.3 µM with HOP-62 NSCLC; 29.6 µM in the assay on OVCAR-3 ovarian; 25.6 µM in the assay on PC-3 prostate. Further, the GI50 was 13.1 µM with SF-539 CNS, 66.7 µM in the assay with SK-MEL-28 melanoma, 50.5 µM with SNB-19 CNS and 67.8 µM with SNB-75 CNS. Besides, the TGI with CAKI-1 renal was 44.8 µM; with HCC-2998 colon, > 100 µM; with HCT-15 colon, > 100 µM; in the assay on HOP-62 NSCLC, 93 µM; with OVCAR-3 ovarian, 87.4 µM; in the assay on PC-3 prostate, > 100 µM. The TGI is 37.4 µM with SF-539 CNS, > 100 µM with SK-MEL-28 melanoma, > 100 µM in the assay with SNB-19 CNS and > 100 µM in the assay on SNB-75 CNS.

Consider `CN(C)CCCN(CCC1CCCCC1)CCC1CCCCC1`, for which the GI50 in the assay on CAKI-1 renal is 2.65 µM; in the assay on HCC-2998 colon, 0.325 µM; with HCT-15 colon it was 1.46 µM; in the assay with HOP-62 NSCLC it was 6.06 µM; in the assay on OVCAR-3 ovarian it was 2.11 µM; with PC-3 prostate, 4.47 µM. For the same compound, the GI50 with SF-539 CNS was 1.68 µM; in the assay on SK-MEL-28 melanoma it was 0.593 µM; in the assay on SNB-19 CNS, 5.63 µM; in the assay on SNB-75 CNS it was 1.8 µM. The TGI with CAKI-1 renal was found to be 8.06 µM; in the assay on HCC-2998 colon it was 0.915 µM; in the assay on HCT-15 colon, 3.59 µM; with HOP-62 NSCLC it was 16.3 µM; in the assay on OVCAR-3 ovarian, 5.63 µM; in the assay with PC-3 prostate, 17.9 µM. The TGI worked out at 3.16 µM with SF-539 CNS, 1.18 µM with SK-MEL-28 melanoma, 18.8 µM in the assay on SNB-19 CNS and 6.5 µM in the assay on SNB-75 CNS.
